In PMC7377239, “Cardiovascular Effects of Polychlorinated Biphenyls and Their Major Metabolites” (Environmental Health Perspectives, 2020):
Where two headings read alike, the source gives them in different places.

System: iCell cardiomyocytes (human iPSC-derived cardiomyocytes)
Test: High-content imaging of cytotoxicity and mitochondrial integrity in iPSC-CMs
Format: cell-based
Settings: Homo sapiens, Cardiomyocyte; for viability at 0.01 µM / activity at 0.01 µM / viability at 0.1 µM / activity at 0.1 µM / viability at 1 µM / activity at 1 µM / viability at 10 µM / activity at 10 µM / viability at 100 µM / activity at 100 µM: 0.00 µM = 100.00; for viability at 0.1 µM / activity at 0.1 µM: 0.10 µM
Procedure: Details on cardiomyocyte cell culture are described in detail elsewhere ([Grimm et al. 2015b]; [Sirenko et al. 2013a]). Briefly, tissue-culture treated 384 well plates were gelatinized with 25μL per well of 0.1% (w/v) gelatin in water for 2 h at 37°C and 5% CO2 . Individual vials of cells were thawed for 4 min in a water bath maintained at 37°C. Thawed cells were resuspended in 10ml plating medium containing 1:500 (vol/vol) penicillin/streptomycin solution at room temperature (RT). Live cell counts for each cell suspension were determined by trypan blue staining and cells were further diluted to provide final cell densities of 2×10^5 viable cells/ml. Thus, 5,000 cells suspended in 25μL media were transferred per well after the gelatin solution had been discarded. Cell culture plates were rested for 30 min at RT before they were incubated for 48 h at 37°C and 5% CO2 . Then, a media exchange with 30μL of fresh maintenance medium containing 1:500 (vol/vol) penicillin/streptomycin solution was performed, and cell media were subsequently changed every 48 h for 12 d. On the experiment day, the medium was completely exchanged with either 25μL (for Ca^2+ flux assay) or 40μL (for imaging) of fresh medium.
Cytotoxicity and effects on mitochondrial integrity of various PCBs and PCB metabolites in induced pluripotent stem cell-CMs (iPSC-CMs) were assessed using high-content cellular imaging in ImageXpress® Micro Confocal (Molecular Devices) as detailed in ([Grimm et al. 2015b]). Cells in 40μL maintenance media were treated with 10μL of 5× chemical solutions to provide test chemicals at final assay concentrations ranging from 0.01 to 100μM . […] Next, sample wells were treated with 50μL equilibrated 2× concentrated staining solution (maintenance medium containing Hoechst 33342, 4μg/mL and MitoTracker™ Orange, 0.4μM ). Microplates were then incubated for 15 min at 37°C and 5% CO2 before cells were washed twice with 30μL maintenance medium. All media were aspirated and discarded, and cells were fixed with […] of a 3.7% formaldehyde solution for 15 min at 37°C and 5% […] . Fixed cells were washed 3× with 25μL PBS before image acquisition using the DAPI (Hoechst 33342) and Cy3 (MitoTracker™ Orange) filters at 10× magnification on the ImageXpress® Micro Confocal high-content confocal microscope (Molecular Devices). The multiwavelength cell scoring applications module in MetaXpress® was used to analyze acquired images.
Phenotypic responses were quantitatively assessed using concentration–response modeling as detailed elsewhere ([Sirenko et al. 2017]). Briefly, phenotypic readouts were normalized to vehicle controls and fit to a four-parameter logistic model in R studio software (version 3.1.1; R Development Core Team). Following EPA guidance on dose–response modeling, a cutoff of one standard deviation across means of vehicle control (i.e., 0.5% vol/vol DMSO in cell culture media) wells was applied to determine the point-of-departure (POD) values ([U.S. EPA 2012]). In the absence of a concentration–response, the highest tested concentration (i.e., 100μM ) was assigned as “no observable adverse effect level.” The concentration–response assessment R script, as well as templates for vehicle and concentration–response data, are available as a supplement to Sirenko et al. ([2017]). The ability of physicochemical properties to predict differences in PODs were evaluated by multiregression and mixed-effects modeling using R.

[1] = 1.5 h, 90min, read-out: cm.cam.90min
[2] = 1.5 h, 90min, read-out: cm.mii.90min
[3] = 1.5 h, 90min, read-out: cm.mito.90min
[4] = 1.5 h, 90min, read-out: cm.tc.90min
[5] = 24 h, 24hrs, read-out: cm.cam.24hrs
[6] = 24 h, 24hrs, read-out: cm.mii.24hrs
[7] = 24 h, 24hrs, read-out: cm.mito.24hrs
[8] = 24 h, 24hrs, read-out: cm.tc.24hrs

## Clc1ccc(Cl)c(-c2cc(Cl)ccc2Cl)c1 [PCB52]
[1]
  viability at 0.01 µM: 98.6%
  viability at 0.1 µM: 95.8%
  viability at 1 µM: 101%
  viability at 10 µM: 106%
  viability at 100 µM: 0.44%
[2]
  activity at 0.01 µM: 115%
  activity at 0.1 µM: 118%
  activity at 1 µM: 107%
  activity at 10 µM: 94.2%
  activity at 100 µM: 12.8%
[3]
  activity at 0.01 µM: 98.4%
  activity at 0.1 µM: 95.7%
  activity at 1 µM: 102%
  activity at 10 µM: 106%
  activity at 100 µM: 0.55%
[4]
  viability at 0.01 µM: 98.4%
  viability at 0.1 µM: 95.6%
  viability at 1 µM: 102%
  viability at 10 µM: 106%
  viability at 100 µM: 1.04%
1.5 h, 90min, read-out: cm.cam.90min POD
  minimal effective concentration: 36 µM
1.5 h, 90min, read-out: cm.mii.90min POD
  minimal effective concentration: 10.4 µM
1.5 h, 90min, read-out: cm.mito.90min POD
  minimal effective concentration: 39.2 µM
1.5 h, 90min, read-out: cm.tc.90min POD
  minimal effective concentration: 38.9 µM
[5]
  viability at 0.01 µM: 93.5%
  viability at 0.1 µM: 98.9%
  viability at 1 µM: 95.8%
  viability at 10 µM: 92%
  viability at 100 µM: 3.37%
[6]
  activity at 0.01 µM: 103%
  activity at 0.1 µM: 117%
  activity at 1 µM: 112%
  activity at 10 µM: 103%
  activity at 100 µM: 5.38%
[7]
  activity at 0.01 µM: 91.8%
  activity at 0.1 µM: 99.3%
  activity at 1 µM: 95.8%
  activity at 10 µM: 90.3%
  activity at 100 µM: 0.14%
[8]
  viability at 0.01 µM: 94.3%
  viability at 0.1 µM: 98.8%
  viability at 1 µM: 96.3%
  viability at 10 µM: 92.3%
  viability at 100 µM: 7.71%
24 h, read-out: cm.cam.24hrs POD
  minimal effective concentration: 7.5 µM
24 h, read-out: cm.mii.24hrs POD
  minimal effective concentration: 34.4 µM
24 h, read-out: cm.mito.24hrs POD
  minimal effective concentration: 7.32 µM
24 h, read-out: cm.tc.24hrs POD
  minimal effective concentration: 8.11 µM
